Test results from ChEMBL document CHEMBL4190348, “Synthesis of cytotoxically active derivatives based on alkylated 2,3-seco-triterpenoids” (Eur J Med Chem, 2017).
≈ marks a conversion by molar mass, not a printed value. Calls of active or inactive are those of the source. The calls are words filed in the database; no cut-off is given here.

Legend:
[1] = system: HCT-116; assay: Cytotoxicity against human HCT116 cells assessed as reduction in cell viability incubated for 72 hrs by MTT assay; type: functional, cell-based; conditions: HCT-116, 72 h
[2] = system: RD; assay: Cytotoxicity against human TE32 cells assessed as reduction in cell viability incubated for 72 hrs by MTT assay; type: functional, cell-based
[3] = system: A549; assay: Cytotoxicity against human A549 cells assessed as reduction in cell viability incubated for 72 hrs by MTT assay; type: functional, cell-based; conditions: A549, 72 h
[4] = system: HEp-2; assay: Cytotoxicity against human Hep2 cells assessed as reduction in cell viability incubated for 72 hrs by MTT assay; type: functional, cell-based; conditions: HEp-2, 72 h
[5] = Cytotoxicity against human MS cells assessed as reduction in cell viability incubated for 72 hrs by MTT assay; type: functional, cell-based
[6] = system: Human immunodeficiency virus 1; assay: Antiviral activity against HIV1; type: functional, organism-based
[7] = system: HCT-116; assay: Induction of apoptosis in human HCT116 cells assessed as increase in caspase-8 activity at 10 uM after 12 hrs by fluorimetric assay; type: functional, cell-based
[8] = system: HCT-116; assay: Induction of apoptosis in human HCT116 cells assessed as early apoptotic cells level at 10 uM incubated for 16 hrs by Annexin V-FICT/PI staining based flow cytometry (reference value: 4.47%); type: functional
[9] = system: HCT-116; assay: Cytotoxicity against human HCT116 cells assessed as reduction in cell viability at 10 uM incubated for 12 to 72 hrs by MTT assay; type: functional, cell-based; conditions: TDE = time-dependent effect
[10] = Selectivity index, ratio of IC50 for HEK293 cells to IC50 for human MS cells; type: toxicity; conditions: HEK293 cells versus MS cells, read-out: Ratio IC50
[11] = system: HCT-116; assay: Induction of apoptosis in human HCT116 cells assessed as late apoptotic cells level at 10 uM incubated for 16 hrs by Annexin V-FICT/PI staining based flow cytometry (reference value: 2.51%); type: functional
[12] = Selectivity index, ratio of IC50 for HEK293 cells to IC50 for human Hep2 cells; type: toxicity; conditions: HEK293 cells versus Hep2 cells, read-out: Ratio IC50
[13] = system: HCT-116; assay: Induction of apoptosis in human HCT116 cells assessed as increase in mitochondrial membrane depolarization at 10 uM incubated for 18 hrs by rhodamine 123 staining based fluorescent inverted microscopy (reference value: 8%); type: functional
[14] = Selectivity index, ratio of IC50 for HEK293 cells to IC50 for human TE32 cells; type: toxicity; conditions: HEK293 cells versus TE32 cells, read-out: Ratio IC50
[15] = system: HCT-116; assay: Induction of apoptosis in human HCT116 cells assessed as viable cells level at 10 uM incubated for 16 hrs by Annexin V-FICT/PI staining based flow cytometry (reference value: 91.36%); type: functional
[16] = system: HCT-116; assay: Induction of apoptosis in human HCT116 cells assessed as necrotic cells level at 10 uM incubated for 16 hrs by Annexin V-FICT/PI staining based flow cytometry (reference value: 1.67%); type: functional
[17] = system: HCT-116; assay: Induction of apoptosis in human HCT116 cells assessed as increase in caspase-3/7 activity at 10 uM after 24 hrs by fluorimetric assay; type: functional, cell-based
[18] = system: HCT-116; assay: Induction of apoptosis in human HCT116 cells assessed as increase in chromatin condensation at 10 uM incubated for 18 hrs by Hoechst 33258 staining based fluorescent inverted microscopy; type: functional
[19] = system: HEK293; assay: Cytotoxicity against HEK293 cells assessed as reduction in cell viability incubated for 72 hrs by MTT assay; type: cell-based; conditions: Homo sapiens, HEK293, 72 h
[20] = system: HCT-116; assay: Induction of apoptosis in human HCT116 cells assessed as increase in caspase-3/7 activity at 10 uM after 18 hrs by fluorimetric assay; type: functional, cell-based
[21] = Selectivity index, ratio of IC50 for HEK293 cells to IC50 for human HCT116 cells; type: toxicity; conditions: HEK293 cells versus HCT116 cells, read-out: Ratio IC50
[22] = system: HCT-116; assay: Induction of apoptosis in human HCT116 cells assessed as increase in cck18 level at 10 uM after 18 hrs by fluorimetric assay; type: functional, cell-based
[23] = system: Human alphaherpesvirus 1; assay: Antiviral activity against HSV1; type: functional, organism-based
[24] = system: HCT-116; assay: Induction of apoptosis in human HCT116 cells assessed as viable cells level at 2 uM incubated for 16 hrs by Annexin V-FICT/PI staining based flow cytometry (reference value: 91.36%); type: functional
[25] = system: HCT-116; assay: Induction of apoptosis in human HCT116 cells assessed as early apoptotic cells level at 2 uM incubated for 16 hrs by Annexin V-FICT/PI staining based flow cytometry (reference value: 4.47%); type: functional
[26] = system: HCT-116; assay: Induction of apoptosis in human HCT116 cells assessed as necrotic cells level at 2 uM incubated for 16 hrs by Annexin V-FICT/PI staining based flow cytometry (reference value: 1.67%); type: functional
[27] = system: HCT-116; assay: Induction of apoptosis in human HCT116 cells assessed as late apoptotic cells level at 2 uM incubated for 16 hrs by Annexin V-FICT/PI staining based flow cytometry (reference value: 2.51%); type: functional
[28] = system: HCT-116; assay: Induction of apoptosis in human HCT116 cells assessed as increase in mitochondrial membrane depolarization at 2 uM incubated for 18 hrs by rhodamine 123 staining based fluorescent inverted microscopy (reference value: 8%); type: functional
[29] = system: HL-60; assay: Growth inhibition of human HL60 cells; type: functional

SMILES | IC50 [1] | IC50 [2] | IC50 [3] | IC50 [4] | IC50 [5] | also measured
COC(=O)[C@]12CC[C@@H](C(C)=O)[C@@H]1[C@H]1CC[C@@H]3[C@@]4(C)C(C#N)=C(C)C(C)(C)[C@@H]4CC[C@@]3(C)[C@]1(C)CC2 | > 100 µM | > 100 µM | > 100 µM | > 100 µM | > 100 µM | –
C=C(C)[C@@H]1CC[C@]2(C(=O)O)CC[C@]3(C)[C@H](CC[C@@H]4[C@@]5(C)[C@H](C(=O)O)[C@H](O)C(C)(C)[C@@H]5CC[C@]43C)[C@@H]12 [EPICEANOTHIC ACID] | – | – | – | – | – | EC50 [6]: < 0.064 µg/mL
C=C(C)[C@@H]1CC[C@]2(C(=O)OC)CC[C@]3(C)[C@H](CC[C@@H]4[C@@](C)(CC#N)[C@H](C(C)(C)[C@@H](C)OC(C)=O)CC[C@]43C)[C@@H]12 | > 100 µM | 42.5 µM | 92.7 µM | > 100 µM | 96.9 µM | –
CC1(C)CC[C@]23CC[C@]4(C)[C@H](CC[C@@H]5[C@@](C)(CC#N)[C@H](C(C)(C)C(=O)C(Br)Br)CC[C@]54C)[C@H]2[C@H]1OC3 | > 100 µM | > 100 µM | > 100 µM | > 100 µM | > 100 µM | –
C=C(C=O)[C@@H]1CC[C@]2(C(=O)OC)CC[C@]3(C)[C@H](CC[C@@H]4[C@@](C)(CC#N)[C@H](C(C)(C)C(=O)CBr)CC[C@]43C)[C@@H]12 | 10.3 µM | 3.84 µM | 25.4 µM | 5.28 µM | 3.41 µM | Activity [7]: Active; Activity [8]: 25.61%; Activity [9]: Tde; selectivity ratio [10]: 27.2; Activity [11]: 10.07%; selectivity ratio [12]: 17.4; Activity [13]: 11.6%; selectivity ratio [14]: 24.3; Activity [15]: 59.86%; Activity [16]: 4.46%; Activity [17]: Active; Activity [18]: 28.3%; IC50 [19]: 92.3 µM; Activity [20]: Active; selectivity ratio [21]: 8.9; Activity [22]: Active
CC1(C)CC[C@]23CC[C@]4(C)[C@H](CC[C@@H]5[C@@]6(C)C(C#N)=C(CO)C(C)(C)[C@@H]6CC[C@]54C)[C@H]2[C@H]1OC3 | > 100 µM | > 100 µM | 57.8 µM | > 100 µM | > 100 µM | –
C[C@@H](O)C(C)(C)[C@@H]1CC[C@]2(C)[C@H](CC[C@@H]3[C@H]4[C@H]5OC[C@@]4(CCC5(C)C)CC[C@]32C)[C@@]1(C)CC#N | > 100 µM | 96.5 µM | > 200 µM | > 100 µM | 83.3 µM | –
C=C(C)[C@@H]1CC[C@]2(C(=O)OC)CC[C@]3(C)[C@H](CC[C@@H]4[C@@](C)(CC#N)[C@H](C(C)(C)[C@@H](C)O)CC[C@]43C)[C@@H]12 | 31.7 µM | 20.2 µM | 19.1 µM | 43.8 µM | 15.1 µM | –
CC1(C)CC[C@]23CC[C@]4(C)[C@H](CC[C@@H]5[C@@](C)(CC#N)[C@H](C(C)(C)C(=O)CBr)CC[C@]54C)[C@H]2[C@H]1OC3 | > 100 µM | 52.9 µM | > 100 µM | > 100 µM | > 100 µM | –
C=C(C=O)[C@@H]1CC[C@]2(C(=O)OC)CC[C@]3(C)[C@H](CC[C@@H]4[C@@]5(C)C(C#N)=C(C)C(C)(C)[C@@H]5CC[C@]43C)[C@@H]12 | 7.09 µM | 21.8 µM | 36 µM | 17.4 µM | 8.59 µM | –
CC(=O)C(C)(C)[C@@H]1CC[C@]2(C)[C@H](CC[C@@H]3[C@H]4[C@H]5OC[C@@]4(CCC5(C)C)CC[C@]32C)[C@@]1(C)CC#N | > 100 µM | > 100 µM | > 100 µM | > 100 µM | > 100 µM | EC50 [6]: 7.2 µg/mL (≈ 15.4 µM); EC50 [23]: 21.1 µg/mL (≈ 45.1 µM)
CC[C@@]1(O)C(=O)OCc2c1cc1n(c2=O)Cc2cc3ccccc3nc2-1 [CAMPTOTHECIN] | 1.88 µM | – | – | 3.04 µM | 1.84 µM | Activity [24]: 80.88%; Activity [25]: 12.44%; Activity [26]: 1.6%; Activity [27]: 5.07%; Activity [28]: -30%
CC(=O)O[C@H](C)C(C)(C)[C@@H]1CC[C@]2(C)[C@H](CC[C@@H]3[C@H]4[C@H]5OC[C@@]4(CCC5(C)C)CC[C@]32C)[C@@]1(C)CC#N | 65.3 µM | 31.9 µM | 45.7 µM | > 100 µM | 21.3 µM | –
C=C(C)[C@@H]1CC[C@]2(C(=O)OC)CC[C@]3(C)[C@H](CC[C@@H]4[C@@](C)(CC#N)[C@H](C(C)(C)C(C)=O)CC[C@]43C)[C@@H]12 | > 100 µM | > 100 µM | > 100 µM | > 100 µM | > 100 µM | EC50 [6]: 39.9 µg/mL (≈ 80.5 µM)
CC1(C)CC[C@]23CC[C@]4(C)[C@H](CC[C@@H]5[C@@]6(C)C/C(=N\O)[C@](C)(O)C(C)(C)[C@@H]6CC[C@]54C)[C@H]2[C@H]1OC3 | > 100 µM | 33.7 µM | > 100 µM | 85.4 µM | 87.3 µM | –
COC(=O)[C@]12CC[C@@H](C(C)=O)[C@@H]1[C@H]1CC[C@@H]3[C@@](C)(CC#N)[C@H](C(C)(C)C(C)=O)CC[C@@]3(C)[C@]1(C)CC2 | > 100 µM | > 100 µM | > 100 µM | > 100 µM | > 100 µM | –
C=C(C=O)[C@@H]1CC[C@]2(C(=O)OC)CC[C@]3(C)[C@H](CC[C@@H]4[C@@](C)(CC#N)[C@H](C(C)(C)C(=O)C(Br)Br)CC[C@]43C)[C@@H]12 | 26.3 µM | 6.96 µM | > 100 µM | > 100 µM | 6.27 µM | –
C=C(C=O)[C@@H]1CC[C@]2(C(=O)OC)CC[C@]3(C)[C@H](CC[C@@H]4[C@@](C)(CC#N)[C@H](C(C)(C)C(C)=O)CC[C@]43C)[C@@H]12 | 7.3 µM | 5.04 µM | 15.4 µM | 52.1 µM | 5.48 µM | IC50 [19]: 6 µM
C=C(C)[C@@H]1CC=C2[C@@H](CC[C@]3(C)[C@@H]([C@H](C)CC(=O)CC(C)C)CC[C@@]23C)[C@@]1(C)CCC(=O)O | – | – | – | – | – | GI50 [29]: 6.8 µM
C=C(C)[C@@H]1CC[C@]2(C(=O)OC)CC[C@]3(C)[C@H](CC[C@@H]4[C@@]5(C)C/C(=N\O)[C@](C)(O)C(C)(C)[C@@H]5CC[C@]43C)[C@@H]12 | > 100 µM | 29 µM | 55.4 µM | 71 µM | 23.5 µM | –
